Source: article PMC10644342, “Improved Antibacterial Activity of 1,3,4-Oxadiazole-Based Compounds That Restrict Staphylococcus aureus Growth Independent of LtaS Function” (ACS Infectious Diseases, 2023)
In brackets after ≈: the same amount, converted by molar mass. Like-named read-outs stand apart in the source and are kept apart here.

Legend:
S. aureus = assay: MIC, broth microdilution (CLSI); assay type: cell-based, Staphylococcus aureus; details: for MIC: read-out: minimum inhibitory concentration; for MIC50: used for selectivity index; for MIC range against S. aureus strains: collection of S. aureus strains incl. multidrug-resistant MRSA and VRSA
Protocol: (§1) S. aureus, S. epidermidis, E. faecalis, and E. faecium strains were routinely cultivated on tryptic soy agar (TSA) and grown for 18 h at 37 °C. S. aureus single colonies were subsequently transferred into 2 mL of tryptic soy broth (TSB) and grown for a further 18 h at 37 °C while being shaken at 180 rpm. S. pyogenes, S. agalactiae, and S. dysgalactiae strains were routinely cultured on TSA supplemented with 5% sheep blood and grown for 18 h at 37 °C with 5% CO2. E. coli was grown in LB broth at 37 °C. For LtaS-deficient strains, TSB was supplemented with 0.5 M NaCl to provide an osmotically balanced environment and instead grown at 30 °C. For strains harboring the pRMC2 tetracycline inducible vector,[61] the growth medium was supplemented with 10 μg/mL chloramphenicol and […] anhydrotetracycline hydrochloride (Sigma). Phenylalanine-arginine β-naphthylamide (PAβN) (Sigma) was dissolved in sterile water.
(§2) B. subtilis, staphylococcal, and enterococcal strains were grown in Mueller Hinton broth (MHB), while streptococcal strains were grown in MHB supplemented with 5% laked horse blood. All strains were grown for 18 h at 37 °C. The overnight cultures were subsequently subcultured 1:200 and grown to the exponential phase (OD600nm = 0.5–0.6) in fresh broth. 1771 and its derivatives 9–14 were reconstituted in DMSO and further diluted by performing a 1:2 serial dilution ranging between 256 and 0.125 μg/mL in a 96-well microtiter plate. One hundred microliters of 0.5 McFarland standardized inoculum (approximately equal to 5 × 10^5 cfu) were then dispensed into each well in the 96-well microtiter plate. The plate was incubated for 18 h at 37 °C.

E. faecalis (JH2-2) = assay: MIC, broth microdilution (CLSI); assay type: cell-based; details: Enterococcus faecalis
Protocol: as §1, §2

E. faecium (C68) = assay: MIC, broth microdilution (CLSI); assay type: cell-based; details: Enterococcus faecium
Protocol: as §1, §2

S. agalactiae = assay: MIC, broth microdilution (CLSI); assay type: cell-based; details: Streptococcus agalactiae
Protocol: as §1, §2

S. dysgalactiae = assay: MIC, broth microdilution (CLSI); assay type: cell-based; details: Streptococcus dysgalactiae
Protocol: as §1, §2

S. pyogenes = assay: MIC, broth microdilution (CLSI); assay type: cell-based; details: Streptococcus pyogenes
Protocol: as §1, §2

erythrocytes = assay: Erythrocyte toxicity (hemolysis) assay; assay type: cell-based, human; details: concentrations as high as 256 μg/mL, 1 h, 37 °C
Protocol: Consent was collected from three healthy volunteers prior to blood collection and in accordance with the recommendations of the University of Bath, Research Ethics Approval Committee for Health Blood (EP 18/19108). Blood was collected by venepuncture and drawn directly into K2-EDTA-coated Vacutainer tubes (BD Biosciences) to prevent coagulation. The blood was then pelleted at 500g for 10 min at 4 °C, and the plasma layer was removed. The remaining hematocrit was resuspended to the original volume in a sterile saline solution. This procedure was repeated three times and finally resuspended in sterile PBS and diluted to 2% (v/v). One hundred microlitres of the resulting blood suspension were aliquoted in a 96-well microtire plate. An equal volume of either 1771 or 13 (diluted in PBS) was then added at a concentration range of 256–2 μg/mL and incubated for 1 h at 37 °C. Blood incubated with PBS served as a negative control, and total hemolysis (positive control) was provided by incubating the cells in 2% (v/v) Triton X-100. Following incubation, the 96-well microtire plate was pelleted at 500g for 5 min, and 100 μL of supernatant was transferred into a new plate. Absorbance at abs404nm was measured using a Sunrise plate reader, and percentage hemolysis was calculated according to controls.

LTA = LTA quantification by Western blot; assay type: cell-based, Staphylococcus aureus; details: strain LAC, 1× and 4× the MIC
Protocol: Overnight cultures of S. aureus strains were diluted 1:200 in fresh TSB and grown to an optical density of OD600nm 0.3. […] Vancomycin and daptomycin at 1× and 4× MIC were also included as control antibiotics. Cells were then normalized to have 10 mL of OD600nm 0.6, pelleted at 4000 rpm, and resuspended in 300 μL of PBS containing 200 μg/mL lysostaphin. This suspension was then incubated at 37 °C for 45 min to allow digestion of the cell wall to occur. One hundred microlitres of 4× SDS sample buffer were then added, and the mixture was boiled at 95 °C for 20 min. The insoluble material was then removed by pelleting at 16,000 rpm for 10 min. The supernatant containing LTA was then subjected to SDS-PAGE on a 4–20% Tris-glycine gel (Bio-Rad). The gel was transferred onto a PVDF membrane using a Trans-Blot Turbo Transfer System (Bio-Rad). The membrane was blocked overnight in TBST containing 5% semi-skimmed milk before being incubated with a mouse anti-LTA antibody (Hycult; HM2048; 1:2000 dilution) followed by a goat antimouse-HRP secondary antibody (Proteintech; SA00001; 1:2000 dilution) before being visualized using an Amersham-ECL kit (Cytiva).

[1] = Staphylococcus aureus, NEWMAN, strain Newman
[2] = Staphylococcus aureus, strain EMRSA-15
[3] = Staphylococcus aureus, strain LAC
[4] = Staphylococcus aureus, strain MRSA252
[5] = Staphylococcus aureus, strain MW2
[6] = Staphylococcus aureus, strain Mu3
[7] = Staphylococcus aureus, strain Mu50
[8] = Staphylococcus aureus, strain SH1000
[9] = Staphylococcus aureus, strain TW20
[10] = NCTC10238, S. dysgalactiae (NCTC 10238)
[11] = NCTC13762, S. dysgalactiae (NCTC 13762)
[12] = NCTC8198, S. pyogenes (NCTC 8198)
[13] = NCTC12048, S. pyogenes (NCTC 12048)

Molecule `O=C(COC(=O)Cc1coc2ccc3ccccc3c12)Nc1nnc(-c2ccc(S(F)(F)(F)(F)F)cc2)o1` [Compound 13, 2-Oxo-2-((5-(4-(pentafluoro-l6-sulfaneyl)phenyl)-1,3,4-oxadiazol-2-yl)amino)ethyl 2-(Naphtho[2,1-b]furan-1-yl)acetate] has an MIC (S. aureus; [1]) of 0.5 µg/mL (≈ 0.903 µM), an MIC (S. aureus; [2]) of 0.5 µg/mL (≈ 0.903 µM) and an MIC (S. aureus; [3]) of 0.5 µg/mL (≈ 0.903 µM). The MIC (S. aureus; [4]) was 1 µg/mL (≈ 1.81 µM), the MIC (S. aureus; [5]) was 0.5 µg/mL (≈ 0.903 µM) and the MIC (S. aureus; [6]) was 0.5 µg/mL (≈ 0.903 µM). For the same molecule, the MIC (S. aureus; [7]) was 0.5 µg/mL (≈ 0.903 µM), the MIC (S. aureus; [8]) was 0.5 µg/mL (≈ 0.903 µM) and the MIC (S. aureus; [9]) was 0.5 µg/mL (≈ 0.903 µM). The MIC90 (S. aureus; Staphylococcus aureus, against S. aureus) was 0.5 µg/mL (≈ 0.903 µM), the MIC50 (S. aureus; Staphylococcus aureus) was 0.5 µg/mL (≈ 0.903 µM) and the “MIC range against S. aureus strains” value (S. aureus) was 0.5 to 1 µg/mL. For the same molecule, the “fold increase in activity compared to 1771” value (S. aureus; multidrug-resistant S. aureus strains) was 16- to 32 fold, the MIC (E. faecalis (JH2-2)) was 2 µg/mL (≈ 3.61 µM) and the MIC (E. faecium (C68)) was greater than 128 µg/mL. The MIC (S. agalactiae; S. agalactiae (18R521)) was 64 µg/mL (≈ 116 µM), the MIC (S. agalactiae; S. agalactiae (COH1)) was 128 µg/mL (≈ 231 µM) and the MIC (S. dysgalactiae; [10]) was 64 µg/mL (≈ 116 µM). For the same molecule, the MIC (S. dysgalactiae; [11]) was 64 µg/mL (≈ 116 µM), the MIC (S. pyogenes; [12]) was 16 to 32 µg/mL (≈ 28.9 to 57.8 µM) and the MIC (S. pyogenes; [13]) was 64 µg/mL (≈ 116 µM). For the same molecule, the erythrocyte lysis (erythrocytes) was “neither caused any lysis” and the “LTA signal by Western blot” value (LTA) was “reduction in LTA abundance”.
Molecule `O=C(COC(=O)Cc1coc2ccc3ccccc3c12)Nc1nnc(-c2ccccc2)o1` [Compound 1771, 2-Oxo-2-((5-phenyl-1,3,4-oxadiazol-2-yl)amino)ethyl 2-(Naphtho[2,1-b]furan-1-yl)acetate, reference compound] has an MIC (S. aureus; [1]) of 4 to 8 µg/mL (≈ 9.36 to 18.7 µM), an MIC (S. aureus; [2]) of 8 to 16 µg/mL (≈ 18.7 to 37.4 µM) and an MIC (S. aureus; [3]) of 8 µg/mL (≈ 18.7 µM). The MIC (S. aureus; [4]) was 8 µg/mL (≈ 18.7 µM), the MIC (S. aureus; [5]) was 8 µg/mL (≈ 18.7 µM) and the MIC (S. aureus; [6]) was 8 to 16 µg/mL (≈ 18.7 to 37.4 µM). It also gave an MIC (S. aureus; [7]) of 4 to 8 µg/mL (≈ 9.36 to 18.7 µM), an MIC (S. aureus; [8]) of 4 to 8 µg/mL (≈ 9.36 to 18.7 µM) and an MIC (S. aureus; [9]) of 8 µg/mL (≈ 18.7 µM). The MIC50 (S. aureus; Staphylococcus aureus) was 8 µg/mL (≈ 18.7 µM), the “MIC range against S. aureus strains” value (S. aureus) was 4 to 16 µg/mL and the MIC (E. faecalis (JH2-2)) was 16 µg/mL (≈ 37.4 µM). The MIC (E. faecium (C68)) was greater than 128 µg/mL, the MIC (S. agalactiae; S. agalactiae (18R521)) was 128 µg/mL (≈ 299 µM) and the MIC (S. agalactiae; S. agalactiae (COH1)) was greater than 128 µg/mL. For the same molecule, the MIC (S. dysgalactiae; [10]) was greater than 128 µg/mL, the MIC (S. dysgalactiae; [11]) was 128 µg/mL (≈ 299 µM) and the MIC (S. pyogenes; [12]) was 32 to 64 µg/mL (≈ 74.9 to 150 µM). The MIC (S. pyogenes; [13]) was 128 µg/mL (≈ 299 µM), the erythrocyte lysis (erythrocytes) was “neither caused any lysis” and the “LTA signal by Western blot” value (LTA) was “reduction in LTA abundance”.
